Test results from patent US20120225092A1, “COSMETIC USE OF SKIN CELL AUTOPHAGY ACTIVATORS” (SOCIETE INDUSTRIELLE LIMOUSINE D'APPLICATION BIOLOGIQUE …, priority 2008, published 2012).
Like-named read-outs stand apart in the source and are kept apart here.

Key:
[1] = tested on: MAP-LC3
Procedure: (§1) The protocol is as follows: • Cultivation of cells for 24 hours in a complete culture medium. • Removal of the culture medium and replacement with the non-nutritive culture medium that contains the oxidizing agent H2O2 for 3 hours (different doses of H2O2—125 μM and/or 250 μM—have been tested). • Removal of the oxidizing agent and the non-nutritive culture medium, replacement by a complete culture medium without an oxidizing agent. • Evaluation of the expression of MAP-LC3, the phosphorylated protein p53, or the protein DRAM after cellular recovery. Several recovery times have been selected (0.5 hour, 1 hour, 1.5 hours, or 2 hours of recovery).
It is possible to evaluate the autophagy of stressed cutaneous cells by visualizing the expression of the protein MAP-LC3 by immunofluorescent marking.
The evaluation of the expression MAP-LC3 was analyzed under these moderate stress conditions (125 μM and 250 μM of hydrogen peroxide H2O2) on HaCaT keratinocyte cultures and on normal human keratinocytes. With the immunomarking results being qualitative, several levels of expression of ATG5-12 were defined: […]

[2] = tested on: phosphorylated protein p53; conditions: H2O2 125 μM, relative to control without stress
Procedure: as §1
It is also possible to evaluate the autophagy of stressed cutaneous cells by visualizing the expression of the phosphorylated protein p53 by Western Blott.
The evaluation of the expression of the phosphorylated protein p53 has therefore been analyzed under these moderate stress conditions with 125 μM of H2O2 on HaCaT keratinocyte cultures and on normal human keratinocytes. The expression of phosphorylated p53 is presented in the table below in percentage relative to the control (without stress).

[3] = tested on: protein DRAM; conditions: H2O2 125 μM, relative to control without stress
Procedure: as §1
It is also possible to evaluate the autophagy of stressed cutaneous cells by visualizing the expression of the protein DRAM by Western Blott.
The evaluation of the expression of DRAM was therefore analyzed under these moderate stress conditions with 125 μM of H2O2 on HaCaT keratinocyte cultures and on normal human keratinocytes. The expression of DRAM is presented in the table below in percentage relative to the control (without stress).

[4] = tested on: MAP-LC3; conditions: relative to control without stress
Procedure: This study has as its objective to compare the autophagy level of young cells (from donors with a mean age of 26 years) and aged cells (from donors with a mean age of 70 years) that are subjected to the same oxidative and nutritive stresses.
The evaluation of the autophagy level was considered by the analysis of the expression of the protein MAP-LC3 by Western Blott.
The protocol that is put into place is as follows: • Cultures of so-called young or aged cells for 24 hours in the complete culture medium, • Removal of the complete culture medium, replacement with the non-nutritive culture medium that contains the oxidizing agent H2O2 for 3 hours at different doses, • Removal of the oxidizing agent, replacement by the complete culture medium without an oxidizing agent, • Evaluation of the expression of MAP-LC3 after cellular recovery.

OO [H2O2, hydrogen peroxide]
Expression of MAP-LC3 ([1]; H2O2 125 μM for 3 hours in non-nutritive medium, recovery time 0.5 hour, HaCaT and normal human keratinocytes): ++
Expression of MAP-LC3 ([1]; H2O2 125 μM for 3 hours in non-nutritive medium, recovery time 1 hour): ++
Expression of MAP-LC3 ([1]; H2O2 125 μM for 3 hours in non-nutritive medium, recovery time 1.5 hours): +++
Expression of MAP-LC3 ([1]; H2O2 125 μM for 3 hours in non-nutritive medium, recovery time 2 hours): ++
Expression of MAP-LC3 ([1]; H2O2 250 μM for 3 hours in non-nutritive medium, recovery time 0.5 hour): ++
Expression of MAP-LC3 ([1]; H2O2 250 μM for 3 hours in non-nutritive medium, recovery time 1 hour): +++
Expression of MAP-LC3 ([1]; H2O2 250 μM for 3 hours in non-nutritive medium, recovery time 1.5 hours): ++
Expression of MAP-LC3 ([1]; H2O2 250 μM for 3 hours in non-nutritive medium, recovery time 2 hours): +
Phosphorylated Expression p53 (%) ([2]; recovery time 0.5 hour): 221%
Phosphorylated Expression p53 (%) ([2]; recovery time 1 hour): 140%
Phosphorylated Expression p53 (%) ([2]; recovery time 2 hours): 128%
Expression of DRAM (%) ([3]; recovery time 0.5 hour): 120%
Expression of DRAM (%) ([3]; recovery time 1 hour): 180%
Expression of DRAM (%) ([3]; recovery time 1.5 hours): 390%
Expression of DRAM (%) ([3]; recovery time 2 hours): 200%
Expression of MAP-LC3 On Aged Cells ([4]; H2O2 125 μM for 3 hours, aged cells (donors mean age 70 years)): 138%
Expression of MAP-LC3 On Young Cells ([4]; H2O2 125 μM for 3 hours, young cells (donors mean age 26 years)): 172%
Expression of MAP-LC3 On Aged Cells ([4]; H2O2 250 μM for 3 hours, aged cells): 187%
Expression of MAP-LC3 On Young Cells ([4]; H2O2 250 μM for 3 hours, young cells): 322%
Expression of MAP-LC3 On Aged Cells ([4]; H2O2 400 μM for 3 hours, aged cells): 135%
Expression of MAP-LC3 On Young Cells ([4]; H2O2 400 μM for 3 hours, young cells): 168%
Expression of MAP-LC3 On Aged Cells ([4]; H2O2 600 μM for 3 hours, aged cells): 96%
Expression of MAP-LC3 On Young Cells ([4]; H2O2 600 μM for 3 hours, young cells): 143%
Expression of MAP-LC3 On Aged Cells ([4]; H2O2 1000 μM for 3 hours, aged cells): 92%
Expression of MAP-LC3 On Young Cells ([4]; H2O2 1000 μM for 3 hours, young cells): 117%
